From ChEMBL document CHEMBL4665709, “Rational Avoidance of Protease Cleavage Sites and Symmetrical End-Tagging Significantly Enhances the Stability and Therapeutic Potential of Antimicrobial Peptides” (J Med Chem, 2020)
≈ marks a conversion by molar mass, not a printed value. Calls of active or inactive are those of the source. No cut-off for these calls is given here. Where a SMILES comes first, the peptide text is derived from it.

Experiments:
[1] = Therapeutic index, ratio of MHC for human RBC to geometric mean of peptide MIC for Salmonella choleraesuis 503; type: toxicity; settings: human red blood cells (RBC), read-out: TI
[2] = Therapeutic index, ratio of MHC for human RBC to geometric mean of peptide MIC for Salmonella typhimurium 14028; type: toxicity; settings: human red blood cells (RBC), read-out: TI
Escherichia coli [3] = experiment: Antibacterial activity against Escherichia coli ATCC 25922 infected in C57BL/6 mouse assessed as reduction in lesion in kidney at 10 mg/kg, ip measured after 11 hrs by hematoxylin and eosin staining based assay; type: functional, organism-based
Escherichia coli [4] = experiment: Antibacterial activity against Escherichia coli ATCC 25922 infected in C57BL/6 mouse assessed as reduction in lesion in lung at 10 mg/kg, ip measured after 11 hrs by hematoxylin and eosin staining based assay; type: functional, organism-based
[5] = Toxicity in C57BL/6 mouse assessed as effect on alanine aminotransferase level at 20 mg/kg, ip measured after 5 days; type: organism-based; settings: in vivo, 120 h, time 5 day
Escherichia coli [6] = experiment: Antibacterial activity against Escherichia coli ATCC 25922 after 18 to 24 hrs by CLSI-based broth microdilution method; type: functional; settings: time hrs 18-24
[7] = Antibacterial activity against Salmonella pullorum 7913 after 18 to 24 hrs by CLSI-based broth microdilution method; type: functional, Salmonella enterica subsp. enterica serovar Pullorum; settings: Salmonella enterica, time hrs 18-24
Salmonella enterica = experiment: Antibacterial activity against Salmonella choleraesuis 503 after 18 to 24 hrs by CLSI-based broth microdilution method; type: functional; settings: time hrs 18-24
Enterococcus faecalis = experiment: Antibacterial activity against Enterococcus faecalis ATCC 29212 after 18 to 24 hrs by CLSI-based broth microdilution method; type: functional; settings: time hrs 18-24
Erythrocyte = experiment: Hemolytic activity in human RBC assessed as hemolysis; type: ADME, cell-based
[8] = Cytotoxicity against mouse RAW264.7 cells assessed as cell viability at 128 uM by MTT assay relative to control; type: cell-based; settings: read-out: Activity
Escherichia coli [9] = experiment: Antibacterial activity against Escherichia coli ATCC 25922 after 18 to 24 hrs in presence of 25% human serum by CLSI-based broth microdilution method; type: functional; settings: time hrs 18-24
Staphylococcus aureus [10] = experiment: Antibacterial activity against Staphylococcus aureus ATCC 29213 after 18 to 24 hrs in presence of 50% human serum by CLSI-based broth microdilution method; type: functional; settings: time hrs 18-24
Staphylococcus aureus [11] = experiment: Antibacterial activity against Staphylococcus aureus ATCC 29213 after 18 to 24 hrs in presence of 100% human serum by CLSI-based broth microdilution method; type: functional; settings: time hrs 18-24
Escherichia coli [12] = experiment: Antibacterial activity against Escherichia coli ATCC 25922 measured after 18 to 24 hrs in presence of pepsin by CLSI-based broth microdilution method; type: functional, organism-based; settings: time hrs 18-24
Staphylococcus aureus [13] = experiment: Antibacterial activity against Staphylococcus aureus 29213 with 0.0625-2 mg/mL chymotrypsin for 1 hr followed by test compound addition measured after 4 to 8 hrs by CLSI-based broth microdilution method; type: functional, organism-based; settings: time hrs 4-8
Staphylococcus aureus [14] = experiment: Antibacterial activity against Staphylococcus aureus 29213 with 0.0625-2 mg/mL proteinase K for 1 hr followed by test compound addition measured after 4 to 8 hrs by CLSI-based broth microdilution method; type: functional, organism-based; settings: time hrs 4-8
Escherichia coli [15] = experiment: Antibacterial activity against Escherichia coli 25922 measured over 40 passages; type: functional, organism-based; settings: ATCC 25922
[16] = Toxicity in C57BL/6 mouse assessed as effect on alanine aminotransferase level at 10 mg/kg, ip measured after 5 days; type: organism-based; settings: in vivo, 120 h, time 5 day
[17] = Toxicity in C57BL/6 mouse assessed as effect on total bilirubin level at 10 mg/kg, ip measured after 5 days; type: organism-based; settings: in vivo, 120 h, time 5 day
[18] = Toxicity in C57BL/6 mouse assessed as effect on total bilirubin level at 20 mg/kg, ip measured after 5 days; type: organism-based; settings: in vivo, 120 h, time 5 day
Escherichia coli [19] = experiment: Antibacterial activity against Escherichia coli ATCC 25922 infected in C57BL/6 mouse assessed as reduction in bacterial load in liver at 10 mg/kg, ip measured after 11 hrs (reference value: 7.12 log CFU/g); type: functional
Escherichia coli [20] = experiment: Antibacterial activity against Escherichia coli ATCC 25922 infected in C57BL/6 mouse assessed as reduction in bleeding in kidney at 10 mg/kg, ip measured after 11 hrs by hematoxylin and eosin staining based assay; type: functional, organism-based
Escherichia coli [21] = experiment: Antibacterial activity against Escherichia coli ATCC 25922 infected in C57BL/6 mouse assessed as reduction in IL-6 level in serum at 10 mg/kg, ip measured after 11 hrs by ELISA; type: functional, organism-based
RAW264.7 [22] = experiment: Antiinflammatory activity in mouse RAW264.7 cells assessed as inhibition of LPS-induced IL-1beta production after 24 hrs by ELISA; type: functional, cell-based
RAW264.7 [23] = experiment: Antiinflammatory activity in mouse RAW264.7 cells assessed as inhibition of LPS-induced TNF-alpha production after 24 hrs by ELISA; type: functional, cell-based
[24] = Stability of compound assessed as chymotrypsin (unknown origin)-mediated drug degradation after 8 hrs by RP-HPLC analysis; type: ADME; settings: human
[25] = Stability of compound assessed as proteinase K (unknown origin)-mediated drug degradation after 8 hrs by RP-HPLC analysis; type: ADME; settings: human
[26] = Stability of compound assessed as chymotrypsin (unknown origin)-mediated drug degradation after 8 hrs by SDS-PAGE analysis; type: ADME; settings: human
[27] = Stability of compound assessed as pepsin (unknown origin)-mediated drug degradation after 8 hrs by SDS-PAGE analysis; type: ADME; settings: human
[28] = Stability of compound assessed as proteinase K (unknown origin)-mediated drug degradation after 8 hrs by SDS-PAGE analysis; type: ADME; settings: human
Lipopolysaccharide (LPS) = experiment: Displacement of BODIPY-TR-cadaverine from Escherichia coli O111:B4 LPS after 4 hrs by fluorescence assay
Cell membrane [29] = experiment: Induction of morpholoical changes in membrane of Escherichia coli ATCC 25922 assessed as corrugation in bacterial membrane at 1 times MIC after 1 hr by scanning electron microscopy
Cell membrane [30] = experiment: Induction of morpholoical changes in membrane of Escherichia coli ATCC 25922 assessed as fragmentation in bacterial membrane at 1 times MIC after 1 hr by scanning electron microscopy; type: subcellular
Cell membrane [31] = experiment: Induction of morpholoical changes in membrane of Staphylococcus aureus ATCC 29213 assessed as corrugation in bacterial membrane at 1 times MIC after 1 hr by scanning electron microscopy; type: subcellular
Cell membrane [32] = experiment: Induction of structural changes in membrane of Escherichia coli ATCC 25922 assessed as cytoplasmic membrane separation at 1 times MIC after 1 hr by transmission electron microscopy; type: subcellular
Cell membrane [33] = experiment: Induction of structural changes in membrane of Escherichia coli ATCC 25922 assessed as outer membrane separation at 1 times MIC after 1 hr by transmission electron microscopy; type: subcellular
Cell membrane [34] = experiment: Induction of structural changes in membrane of Escherichia coli ATCC 25922 assessed as cytoplasmic leakage at 1 times MIC after 1 hr by transmission electron microscopy
Cell membrane [35] = experiment: Induction of structural changes in membrane of Escherichia coli ATCC 25922 assessed as sparsity at 1 times MIC after 1 hr by transmission electron microscopy; type: subcellular
Cell membrane [36] = experiment: Induction of structural changes in membrane of Staphylococcus aureus ATCC 29213 assessed as sparsity at 1 times MIC after 1 hr by transmission electron microscopy; type: subcellular

Q: For `CC[C@H](C)[C@H](N)C(=O)N[C@H](C(=O)N[C@H](C(=O)N[C@@H](CS)C(=O)N[C@@H](CCCNC(=N)N)C(=O)N[C@@H](CCCCN)C(=O)N1CCC[C@H]1C(=O)N[C@H](C(=O)N[C@H](C(=O)N[C@@H](CS)C(=O)N[C@@H](CCCNC(=N)N)C(=O)N[C@@H](CCCCN)C(=O)N1CCC[C@H]1C(=O)N[C@H](C(=O)N[C@H](C(=O)N[C@@H](CS)C(=O)N[C@@H](CCCNC(=N)N)C(=O)N[C@@H](CCCCN)C(=O)N1CCC[C@H]1C(=O)N[C@H](C(=O)N[C@H](C(=O)N[C@@H](CS)C(=O)N[C@@H](CCCNC(=N)N)C(=O)N[C@@H](CCCCN)C(=O)N1CCC[C@H]1C(=O)N[C@H](C(=O)N[C@H](C(=O)N[C@H](C(N)=O)[C@@H](C)CC)[C@@H](C)CC)[C@@H](C)CC)[C@@H](C)CC)[C@@H](C)CC)[C@@H](C)CC)[C@@H](C)CC)[C@@H](C)CC)[C@@H](C)CC)[C@@H](C)CC)[C@@H](C)CC` (H-IIICRKPIICRKPIICRKPIICRKPIII-NH2), which selectivity ratio [1] is on record?
A: 57

Q: What about the selectivity ratio [2] of the same compound?
A: 57

Q: What about the Activity (Escherichia coli [3]) of the same compound?
A: Active

Q: What about the Activity (Escherichia coli [4]) of the same compound?
A: Active

Q: And the Activity [5]?
A: Non-Toxic

Q: What about the MIC (Escherichia coli [6]) of the same compound?
A: 2 µM (≈ 6.63 µg/mL)

Q: What about the MIC [7] of the same compound?
A: 4 µM (≈ 13.3 µg/mL)

Q: What about the MIC (Salmonella enterica) of the same compound?
A: 2 µM (≈ 6.63 µg/mL)

Q: What about the MIC (Enterococcus faecalis) of the same compound?
A: 8 µM (≈ 26.5 µg/mL)

Q: What about the MHC (Erythrocyte) of the same compound?
A: > 128 µM

Q: And the viability at 128 µM [8]?
A: > 90%

Q: And the MIC (Escherichia coli [9])?
A: 4 µM

Q: What about the MIC (Staphylococcus aureus [10]) of the same compound?
A: 16 µM

Q: And the MIC (Staphylococcus aureus [11])?
A: 32 µM

Q: What about the Activity (Escherichia coli [12]) of the same compound?
A: Active

Q: What about the Activity (Staphylococcus aureus [13]) of the same compound?
A: Active

Q: What about the Activity (Staphylococcus aureus [14]) of the same compound?
A: Active

Q: And the Activity (Escherichia coli [15])?
A: Active

Q: What about the Activity [16] of the same compound?
A: Non-Toxic

Q: And the Activity [17]?
A: Non-Toxic

Q: And the Activity [18]?
A: Non-Toxic

Q: And the Activity (Escherichia coli [19])?
A: 5.08 log10CFU/g

Q: And the Activity (Escherichia coli [20])?
A: Active

Q: What about the Activity (Escherichia coli [21]) of the same compound?
A: Active

Q: And the Activity (RAW264.7 [22])?
A: Dose-dependent effect

Q: What about the Activity (RAW264.7 [23]) of the same compound?
A: Dose-dependent effect

Q: And the Stabilty [24]?
A: Stable

Q: What about the Stabilty [25] of the same compound?
A: Stable

Q: And the Stabilty [26]?
A: Stable

Q: And the Stabilty [27]?
A: Stable

Q: And the Stabilty [28]?
A: Stable

Q: And the Activity (Lipopolysaccharide (LPS))?
A: Dose-dependent effect

Q: What about the Activity (Cell membrane [29]) of the same compound?
A: Active

Q: What about the Activity (Cell membrane [30]) of the same compound?
A: Active

Q: What about the Activity (Cell membrane [31]) of the same compound?
A: Active

Q: What about the Activity (Cell membrane [32]) of the same compound?
A: Active

Q: And the Activity (Cell membrane [33])?
A: Active

Q: And the Activity (Cell membrane [34])?
A: Active

Q: And the Activity (Cell membrane [35])?
A: Active

Q: What about the Activity (Cell membrane [36]) of the same compound?
A: Active
